System: rat
Assay: Cataleptic effects
Assay type: in vivo
Conditions: fumarate salt, expressed as free base
Description: The procedure used for determing cataleptic effects of the fumarate salte was based on that of Tedeschi et al., Arch. Int. Pharmacodyn.

| Compound | cataleptic effect, Summary (IP) | cataleptic effect, Summary (PO) | cataleptic effect, Ed50 (estimated) (PO) [mg/kg] |
| --- | --- | --- | --- |
| CN(C(=O)c1ccc(N)cc1)C1CCN(C2CCCCC2)C1 (racemic) [± racemate, 4-Amino-N-(1-cyclohexyl-3-pyrrolidinyl)-N-methylbenzamide] | NSE to 100 | NSE to 200 | – |
| CN(C(=O)c1ccc(N)cc1)C1CCN(C2CCCCC2)C1 (single isomer, unassigned; (+)) [(+)-isomer, (+)-4-Amino-N-(1-cyclohexyl-3-pyrrolidinyl)-N-methylbenzamide] | NSE to 100 | NSE to 200 | – |
| CN(C(=O)c1ccc(N)cc1)C1CCN(C2CCCCC2)C1 (single isomer, unassigned; (-)) [(-)-isomer, (-)-4-amino-N-(1-cyclohexyl-3-pyrrolidinyl)-N-methylbenzamide] | – | – | ~80 |
